Measurements from US10370328B2, “Oxindole compounds and pharmaceutical compositions thereof” (MUSC FOUNDATION FOR RESEARCH DEVELOPMENT, priority 2015, dated 2019).

Legend:
rd10 mouse = test: Rd10 mouse model of RP, eye drops, rows of photoreceptors; type: in vivo; conditions: 100 μM eye drops once daily from postnatal day 14, assessed at postnatal day 25; P < 0.005; vehicle 2.3 ± 0.23
From the text: To test the potential therapeutic efficacy, eye drops were formulated in 0.1% Myrj in 0.9% saline, applied once daily starting at the day of eye opening (postnatal day 14), and their effect assessed on the degeneration of photoreceptor cells morphologically at postnatal day 25.

Balb/c mice = test: Light model assay (light damage), eye drops, rows of photoreceptors; type: in vivo, mouse; conditions: 100 μM eye drops once daily; continuous light for 7 days; maximum effect
From the text: The light model assay is generally accepted as a model of age related macular degeneration (AMD). […] In particular, oxidative damage has been detected by immunohistochemistry, detecting the presence of oxidized and tyrosine-phosphorylated proteins as well as the upregulation of endogenous antioxidants such as thioredoxin and glutathione peroxidase.
The light model assay was used to further test the therapeutic potential of the compounds of the invention. Photoreceptors from albino animals are very sensitive to constant light, lacking the RPE pigment to protect them. […] To test the potential therapeutic efficacy, eye drops were formulated in 0.1% Myrj in 0.9% saline, applied once daily throughout the period of light exposure, and their effect assessed on the light-induced degeneration of photoreceptor cells morphologically and electrophysiologically, 10 days after the onset of the CL exposure.

rd1 mouse = test: Rd1 mouse model of RP (retina organ culture), rows of photoreceptors; type: cell-based; conditions: 10 nM; equivalent of postnatal day 21; P = 0.04; rd1 vehicle 1.81 ± 0.09
Experimental: For the calcium-overload in vitro, the rd1 mouse was utilized (e.g., Farber et al., 1995). […] To test the potential therapeutic efficacy, compounds were added to the culture media starting the day after the start of the culture (equivalent to postnatal day 11) and replaced every 48 hours. Effects were assessed on the degeneration of photoreceptor cells morphologically at the equivalent of postnatal day 21.

661W or C6 cells = test: Metabolic Protection Assay (MTT), protection from calcium-ionophore A23187; type: cell-based; conditions: 1 μM ionophore, 24 h
Experimental: The compound 3-(4,5-Dimethylthiazol-2-yl)-2,5-diphenyltetrazolium bromide (MTT) is a tetrazolium ion that is reduced to a blue formazan dye via several families of NAD(P)H-dependent oxidoreductases. Formation of the formazan dye from MTT or other related tetrazolium dyes are commonly used as a viability assay even though, in fact, the assay is a metabolic capacity assay.
In this assay, 661W or C6 cells were maintained in DMEM supplemented with 10% serum. 100 of 70,000 cells/mL cells were seeded into each well of 96 well plates using DMEM supplemented with 5% serum. Cells were then allowed to grow to confluency for 48 hours. Representative compounds of the invention were added in 2 μL media and calcium-ionophore A23187 was then added in 1 μL for a final concentration of 1 μM and after 24 h, 20 uL of […] MTT were added to each well and the cells were incubated for another 4 h after which 100 μL of 1% SDS in 0.01 M aqueous HCl were added to each well and the plates were incubated overnight. Absorbance was measured at […] (background correction). The 1 μM ionophore A23187 caused about 50% loss in MTT signal at 24 h. Protection was calculated as the increase in absorbance of treatment groups normalized to the vehicle control.

SMILES: CCN1C(=O)C(Cc2cccc(OC)c2O)(OC(=O)N(C)C)c2cc(Cl)ccc21 (stereo not drawn) [Example 10, 5-chloro-1-ethyl-3-(2-hydroxy-3-methoxybenzyl)-2-oxoindolin-3-yl dimethylcarbamate]
- rd10 protection (# of rows) (rd10 mouse): (100 μM) 2.8 ± 0.48 (P < 0.005) # of rows
- LD Protection (# of rows) (Balb/c mice): (100 μM) 5.8 ± 0.34 (P < 0.001) # of rows
- rd1 protection (# of rows) (rd1 mouse): (10 nM) 2.51 ± 0.25 (P = 0.04) # of rows

SMILES: CCN1C(=O)C(Cc2cccc(OC)c2OC(=O)NCCOCCO)(OC(=O)c2ccccc2)c2cc(Cl)ccc21 (stereo not drawn) [Example 12, 5-chloro-1-ethyl-3-(2-(((2-(2-hydroxyethoxy)ethyl)carbamoyl)oxy)-3-methoxybenzyl)-2-oxoindolin-3-yl benzoate]
- LD Protection (# of rows) (Balb/c mice): (100 μM) 4.87 ± 0.22 (P < 0.01) # of rows

SMILES: CCN1C(=O)C(O)(Cc2cccc3c2OCO3)c2cc(C)ccc21 (stereo not drawn) [Example 17, 3-(benzo[d][1,3]dioxol-4-ylmethyl)-1-ethyl-3-hydroxy-5-methylindolin-2-one]
- LD Protection (# of rows) (Balb/c mice): (100 μM) 6.48 ± 0.13 (P < 0.001) # of rows

SMILES: CNc1ccc2oc(C[C@H]3O[C@@]4(CC[C@H]3C)O[C@H]([C@H](C)C(=O)c3ccc[nH]3)[C@H](C)C[C@H]4C)nc2c1C(=O)O [Example A23187]
- loss in MTT signal (661W or C6 cells): about 50%
